The pEC50 is the EC50 on a negative log10 scale, so that one unit is a factor of ten. Read a high pEC50 as a small EC50. One may read the CC50 as the concentration giving 50% cytotoxicity. The low end stands for greater toxicity to the cells, the high end for lower toxicity to the cells.

15 compounds from ChEMBL document CHEMBL1137972, “Synthesis and anti-HCMV activity of 1-acyl-beta-lactams and 1-acylazetidines derived from phenylalanine” (Bioorg Med Chem Lett, 2004) can be followed below.

pEC50: −log10 of the molar value.

Assay [1] relates to HEL. Nature of the assay: Effective concentration against human cytomegalovirus AD-169 strain in HEL cell cultures. The format is functional, cell-based.
Assay [2] concerns HEL. Put plainly: Cytotoxic concentration required to reduce HEL cell growth by 50%. The format is functional. The settings on record: Homo sapiens.
For assay [3], the system named is HEL. Nature of the assay: Effective concentration against human cytomegalovirus Davies strain in HEL cell cultures. The format is functional, cell-based.

As to `Nc1ccn(C[C@@H](CO)OCP(=O)(O)O)c(=O)n1` [CIDOFOVIR], the figures for the pEC50 in the assay on HEL [1] and with HEL [3] were 6.80 and 6.30, respectively. This compound also yielded a CC50 in the assay with HEL [2] above 150 µM.

On to `C[C@H](NC(=O)N1C(=O)C[C@]1(Cc1ccccc1)C(=O)O)c1ccccc1`, for which the pEC50 with HEL [1] and in the assay on HEL [3] was below 3.70 throughout. Moreover, the CC50 in the assay on HEL [2] is above 200 µM.

On to `C[C@H](NC(=O)N1C(=O)C[C@]1(Cc1ccccc1)C(=O)OC(C)(C)C)c1ccccc1`, for which the pEC50 in the assay on HEL [1] is 4.49; in the assay on HEL [3], 4.48. Also, in the assay on HEL [2], it took 164 µM to reach half-maximal cytotoxicity (CC50).

On to `C[C@@H](NC(=O)N1C(=O)C[C@]1(Cc1ccccc1)C(=O)O)c1ccccc1`, for which the pEC50 in the assay with HEL [1] and in the assay on HEL [3] was below 4.30 throughout. In the assay with HEL [2], this compound yielded a CC50 above 200 µM.

Consider `C[C@@H](NC(=O)N1C(=O)C[C@]1(Cc1ccccc1)C(=O)OC(C)(C)C)c1ccccc1`, for which the pEC50 in the assay with HEL [1] was 4.00; in the assay with HEL [3], 3.97. In the assay on HEL [2], this compound returned a CC50 above 200 µM.

For the compound `CC(C)(C)OC(=O)C1(Cc2ccccc2)CCN1C(=O)OCc1ccccc1` (centres undefined), the negative logarithm of the EC50 (pEC50) in the assay on HEL [1] was 6.13; in the assay on HEL [3], 6.21. In addition, in the assay with HEL [2], the CC50 was found to be 34 µM.

On to `Nc1nc2c(ncn2COC(CO)CO)c(=O)[nH]1` [GANCICLOVIR], for which the pEC50 was 6.05 in the assay on HEL [1] and 6.10 with HEL [3]. In addition, the CC50 with HEL [2] was above 150 µM.

Regarding `CC(C)(C)OC(=O)N1C(=O)CC1(Cc1ccccc1)C(=O)OC(C)(C)C` (centres undefined), the pEC50 with HEL [1] and in the assay on HEL [3] was below 3.70 throughout. Moreover, in the assay on HEL [2], the CC50 is above 200 µM.

`C[C@H](NC(=O)N1C(=O)C[C@@]1(Cc1ccccc1)C(=O)O)c1ccccc1`: the pEC50 in the assay on HEL [1] and in the assay with HEL [3] was below 4.30 each time. The compound also yielded a CC50 in the assay on HEL [2] of 187 µM.

For the compound `C[C@H](NC(=O)N1C(=O)C[C@@]1(Cc1ccccc1)C(=O)OC(C)(C)C)c1ccccc1`, the pEC50 in the assay with HEL [1] and with HEL [3] was 4.46 throughout. Further, half-maximal cytotoxicity in the assay with HEL [2] (CC50) was put at 184 µM.

In the assay on HEL [1], `O=C1C[C@H](Cc2ccccc2)N1C(=O)NCc1ccccc1` showed a pEC50 of 4.28. Moreover, the CC50 with HEL [2] was above 750 µM.

Regarding `C[C@@H](NC(=O)N1C(=O)C[C@@]1(Cc1ccccc1)C(=O)OC(C)(C)C)c1ccccc1`, the pEC50 in the assay on HEL [1] is 4.49; in the assay with HEL [3], 4.48. The same compound returned a CC50 in the assay on HEL [2] of 70 µM.

For `CC(C)(C)OC(=O)C1(Cc2ccccc2)CC(=O)N1C(=O)Nc1ccccc1` (centres undefined), the pEC50 in the assay with HEL [1] and in the assay on HEL [3] was 4.30 in each case. The compound also gave a half-maximal cytotoxic concentration (CC50) in the assay with HEL [2] of 118 µM.

Consider `C[C@@H](NC(=O)N1C(=O)C[C@@]1(Cc1ccccc1)C(=O)O)c1ccccc1`, for which the pEC50 in the assay on HEL [1] and in the assay on HEL [3] was below 3.70 throughout. The compound also had a CC50 in the assay on HEL [2] above 200 µM.

In the case of `CC(C)(C)OC(=O)C1(Cc2ccccc2)CC(=O)N1C(=O)OCc1ccccc1` (centres undefined), the negative-log EC50 (pEC50) is 4.96 with HEL [1] and 4.89 in the assay on HEL [3]. The compound further came in with a CC50 in the assay on HEL [2] of 36 µM.
